Experiment in all cases: growth of human tumour cells (NCI), 48 h
The test system of test [1] is M14 melanoma.
The test system of test [2] is DMS 114 small cell lung.
Test [3] deals with UO-31 renal.
In test [4] the test system is U251 CNS.
Test [5] has as its system 786-0 renal.
In test [6] the test system is ACHN renal.
The test system of test [7] is M19-MEL melanoma.
In test [8] the test system is A498 renal.
For test [9], the system named is T-47D breast.
The test system of test [10] is HS 578T breast.

Structures are written as SMILES.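 Test compounds were applied to cells in 96-well plates for 48 hours at 5 doses. GI50 = concentration required for 50% inhibition of growth. Definition used: TGI = concentration required for complete inhibition of growth.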

Consider `CCC[CH2][Sn]1([CH2]CCC)[S]CC[N]1S(=O)(=O)c1ccc(C)cc1`, for which the GI50 is 1.64 µM in [1]; 0.659 µM in test [2]; 1.14 µM in test [3]; 0.885 µM in test [4]; 1.26 µM in test [5]; 1.67 µM in [6]. In addition, the GI50 in test [7] is 1.32 µM. Further, the TGI in test [1] was found to be 3.12 µM; in [2], 2.09 µM; in [3] it was 2.35 µM; in [4], 2.1 µM; in test [5], 2.53 µM; in test [6], 3.11 µM. In test [7], the TGI was found to be 3.03 µM.

For the compound `COc1ccc2c(c1)CN1CCc3c(cc(OC)c(OC)c3OC)C1C2` (stereo not drawn), the TGI in [1], in [2], in test [3], in [4], in test [5] and in test [6] was more than 100 µM throughout. In test [7], this compound returned a TGI of more than 100 µM.

Take `C[C@H]1C=C2C(=O)O[C@H]3CC[C@@H](C1)[C@@]23O`: the TGI in test [1] is 14.7 µM; in test [2], 8.69 µM; in [3], 32.1 µM; in [8], 22.5 µM; in test [4], 19.5 µM; in test [5] it was 12.2 µM. Besides, the TGI in [6] was found to be 17.2 µM; in [7], 15.1 µM.

With `CC(=O)Oc1ccc2c(c1)C(=O)c1nc(C)c(C)nc1C2=O`, the TGI in test [1] was more than 100 µM; in test [2], more than 76.4 µM; in [3], more than 100 µM; in test [8], more than 91.7 µM; in [4], more than 100 µM; in test [5] it was more than 96.5 µM. For the same compound, the values for the TGI in test [6] and in test [7] were more than 100 µM and 9.42 µM, respectively.

Take `O=C([O-])CC(=O)[O-].[NH-][C@@H]1CCCC[C@H]1[NH-].[Pt+4]`: the GI50 in test [1] is 16.7 µM; in test [3] it was 18.9 µM; in test [8], 20.7 µM; in test [4], 17.4 µM; in test [9] it was 8.38 µM; in [5] it was 13.2 µM. Besides, the values for the GI50 in test [10], in test [6] and in test [7] were 19.6 µM, more than 35.9 µM and 14.3 µM, respectively. Also, the TGI in test [1] is more than 100 µM; in test [3], more than 100 µM; in test [8] it was more than 81.5 µM; in test [4] it was more than 83.3 µM; in test [9], more than 100 µM; in test [5] it was more than 100 µM. Moreover, the TGI in [10], in test [6] and in [7] was more than 100 µM in each case.

Turning to `COC(=O)C1CCc2nnc(-c3ccccc3)n21` (stereo not drawn), the TGI in [1], in [2], in [3], in test [8], in test [4] and in test [5] was more than 100 µM each time. The TGI in test [6] and in test [7] was more than 100 µM throughout.

In the case of `CC[PH+](CC)CC.[Cl][Au]`, the GI50 in test [1] was 1.17 µM; in test [3], 6.21 µM; in [4] it was 1.95 µM; in test [5], 1.42 µM; in test [6], 1.61 µM; in test [7] it was 1.08 µM. Besides, the TGI came to 2.53 µM in test [1]; 10.7 µM in test [3]; 5.14 µM in test [4]; 2.74 µM in test [5]; 3.32 µM in test [6]; 6.56 µM in test [7].

For `CNC(=O)CN(CC(=O)O)C(=O)NC`, the TGI in [1], in test [3], in test [8], in [4], in [5] and in [6] was more than 100 µM throughout. Moreover, the TGI in [7] was more than 100 µM.

Regarding `COc1cc2cnc3c4cc(OCc5ccccc5)ccc4ccc3c2cc1OC`, the TGI is more than 100 µM in [1]; 80.4 µM in test [2]; more than 100 µM in test [3]; more than 100 µM in test [4]; 44.5 µM in test [5]; more than 100 µM in [6]. Also, the TGI in test [7] is more than 100 µM.

`c1cncc(CSc2nc3ccccc3nc2-c2cccs2)c1`: the TGI in test [1], in [3], in [5], in test [6] and in [7] was more than 100 µM in each case.

With `C1=CCCC=CCC1.C[PH+](C)C.C[PH+](C)C.C[PH+](C)C.[Cl-].[Ir]`, the GI50 in test [1] is more than 100 µM; in test [3], more than 100 µM; in test [4], 46.2 µM; in test [5] it was more than 100 µM; in [6], more than 100 µM; in test [7] it was 39.8 µM. The TGI in test [1], in test [3], in test [4], in test [5], in test [6] and in test [7] was more than 100 µM throughout.

`CO[C@@]1(c2ccccc2)O[C@H]2OCCC2[C@H]1c1ccc(Cl)cc1` (stereo partly drawn): the TGI in [1] was more than 100 µM; in [2], more than 100 µM; in test [3] it was 90.4 µM; in test [8] it was 53.3 µM; in test [4], 94 µM; in [5], more than 100 µM. Besides, in test [6], the TGI is more than 100 µM.

For `CCC(CO)Nc1nc2c(c(=O)n(C)c(=O)n2C)n1CCO` (stereo not drawn), the TGI in [3], in test [4], in test [5], in test [6] and in test [7] was more than 100 µM throughout.

`CCCCN(CCCC)CC(C(C)=O)C(c1ccccc1)c1c(O)c2ccccc2oc1=O` (stereo not drawn): the TGI in test [1], in test [2], in test [4], in [5], in test [6] and in [7] was more than 100 µM throughout.

As to `N#Cc1cccc(N2C(=O)C3C4C=CC(C3C2=O)C2C(=O)N(c3cccc(C#N)c3)C(=O)C42)c1` (stereo not drawn), the TGI in test [1] was more than 63.1 µM; in test [2], 42 µM; in test [3], 61.8 µM; in [8] it was 42 µM; in test [4] it was 26.8 µM; in test [9] it was more than 31.6 µM. Further, the TGI was more than 63.1 µM in [5], more than 95.5 µM in test [10] and 55.2 µM in test [6].

(Values after PubChem BioAssay (NCI).)
